Data as given in article PMC11689655, “High-throughput screening of dual-target inhibitors for SARS-CoV-2 main protease and papain-like protease from Chebulae Fructus: in silico prediction and experimental verification” (Frontiers in Microbiology, 2024).
Like-named read-outs stand apart in the source and are kept apart here.

Key:
SARS-CoV-2 wild-type = test: Antiviral activity (CPE inhibition) in Vero E6 cells, wild-type; format: cell-based; settings: read-out: EC50 against SARS-CoV-2 wild-type strain
[1] = Cytotoxicity by CCK8 assay; settings: African green monkey
SARS-CoV-2 M^pro [2] = target: T1, SARS-CoV-2 M^pro (Severe acute respiratory syndrome coronavirus 2, UniProt P0DTD1); test: biochemical; settings: FRET
SARS-CoV-2 PL^pro [3] = target: T2, SARS-CoV-2 PL^pro (Severe acute respiratory syndrome coronavirus 2, UniProt P0DTD1); test: FRET enzymatic inhibition assay, PL^pro; format: biochemical
SARS-CoV-2 M^pro [4] = target: T1, SARS-CoV-2 M^pro; test: biochemical; format: binding; settings: SPR, Biacore T200, CM5 chip, kinetics analysis
SARS-CoV-2 PL^pro [5] = target: T2, SARS-CoV-2 PL^pro; test: SPR assay, PL^pro; format: binding; settings: Biacore T200, CM5 chip, kinetics analysis
in vitro = settings: African green monkey
[6] = Severe acute respiratory syndrome coronavirus 2, Vero C1008, MOI = 0.01, 48 h

Structure (SMILES)	EC50 (SARS-CoV-2 wild-type; [6]) [µM]	CC50 [1] [µM]	EC50 (SARS-CoV-2 wild-type; MOI = 0.01, 48 h) [µM]	IC50 (SARS-CoV-2 M^pro [2]; 0.2 μM M^pro, 20 μM substrate, mean ± SD, n = 3, read-out: IC50 against M^pro) [µM]	inhibition at 40 µM (SARS-CoV-2 M^pro [2]; compound 40 μM, read-out: inhibition effect on M^pro) [%]	IC50 (SARS-CoV-2 PL^pro [3]; 1.0 μM PL^pro, 10 μM substrate, mean ± SD, n = 3, read-out: IC50 against PL^pro) [µM]	inhibition at 40 µM (SARS-CoV-2 PL^pro [3]; compound 40 μM, read-out: inhibition effect on PL^pro) [%]	Kd (SARS-CoV-2 M^pro [4]) [µM]	Kd (SARS-CoV-2 PL^pro [5]) [µM]	CC50 (in vitro) [µM]
O=C(OC[C@H]1O[C@@H](OC(=O)c2cc(O)c(O)c(O)c2)[C@H](OC(=O)c2cc(O)c(O)c(O)c2)[C@@H](OC(=O)c2cc(O)c(O)c(O)c2)[C@@H]1OC(=O)c1cc(O)c(O)c(O)c1)c1cc(O)c(O)c(O)c1 [PGG, 1,2,3,4,6-penta-O-galloyl-β-D-glucose]	8.22	> 100								
Cn1cnc(Cn2c(=O)[nH]/c(=N\c3cc4cn(C)nc4cc3Cl)n(Cc3cc(F)c(F)cc3F)c2=O)n1 [S-217622, reference compound]			0.05							
O=C(OC[C@H]1O[C@@H](OC(=O)c2cc(O)c(O)c(O)c2)[C@H](OC(=O)c2cc(O)c(O)c(O)c2)[C@@H](OC(=O)c2cc(O)c(O)c(O)c2)[C@@H]1O)c1cc(O)c(O)c(O)c1 [TGG, 1,2,3,6-tetra-O-galloyl-β-D-glucose]	13			1.33 ± 0.47	> 60	27.4 ± 2.43	> 60	0.768	0.776	> 100
